Test system: MDA-MB-436 cells
Assay: Growth inhibition assay against BRCA mutant human breast cancer MDA-MB-436 cell line (CCK-8, 7 days)
Format: cell-based

| Structure (SMILES) | IC50 [nM] |
| --- | --- |
| CNC(=O)c1ccc(N2CCN(Cc3cc(F)c4c(c3)[nH]c(=O)c3cccn34)CC2)c(F)n1 [Example 41, 7-((4-(2-fluoro-6-(methylcarbamoyl)pyridin-3-yl)piperazin-1-yl)methyl)-9-fluoropyrrolo[1,2-a]quinoxalin-4(5H)-one] | 1.41 |
| [2H]C([2H])([2H])NC(=O)c1ccc(N2CCN(Cc3cc(F)c4c(c3)[nH]c(=O)c3ccnn34)CC2)c(C)n1 [Example 90, 7-((4-(2-methyl-6-((methyl-d3)-carbamoyl)pyridin-3-yl)piperazin-1-yl)methyl)-9-fluoropyrazolo[1,5-a]quinoxalin-4(5H)-one] | 2.44 |
| CNC(=O)c1ccc(N2CCN(Cc3ccc4c(c3)[nH]c(=O)c3cccn34)CC2)cn1 [Example 65, 7-((4-(6-(methylcarbamoyl)pyridin-3-yl)piperazin-1-yl)methyl)pyrrolo[1,2-a]quinoxalin-4(5H)-one] | 1.12 |
| CNC(=O)c1ccc(N2CCN(Cc3cc(F)c4c(c3)[nH]c(=O)c3ccnn34)CC2)c(C)n1 [Example 43, 7-((4-(2-methyl-6-(methylcarbamoyl)pyridin-3-yl)piperazin-1-yl)methyl)-9-fluoropyrazolo[1,5-a]quinoxalin-4(5H)-one] | 1.2 |
| O=C(NC1CC1)c1ccc(N2CCN(Cc3ccc4c(c3)[nH]c(=O)c3cccn34)CC2)c(F)n1 [Example 60, 7-((4-(2-fluoro-6-(cyclopropylcarbamoyl)pyridin-3-yl)piperazin-1-yl)methyl)pyrrolo[1,2-a]quinoxalin-4(5H)-one] | 0.63 |
| CNC(=O)c1ccc(N2CCN(Cc3ccc4c(c3)[nH]c(=O)c3cccn34)CC2)c(F)n1 [Example 34, 7-((4-(2-fluoro-6-(methylcarbamoyl)pyridin-3-yl)piperazin-1-yl)methyl)pyrrolo[1,2-a]quinoxalin-4(5H)-one] | 0.75 |
| O=C(NC1CC1)c1ccc(N2CCN(Cc3ccc4c(c3)[nH]c(=O)c3cccn34)CC2)c(Cl)n1 [Example 61, 7-((4-(2-chloro-6-(cyclopropylcarbamoyl)pyridin-3-yl)piperazin-1-yl)methyl)pyrrolo[1,2-a]quinoxalin-4(5H)-one] | 0.98 |
| CNC(=O)c1ccc(N2CCN(Cc3ccc4c(c3)[nH]c(=O)c3c(C)cnn34)CC2)c(C)n1 [Example 58, 7-((4-(2-methyl-6-(methylcarbamoyl)pyridin-3-yl)piperazin-1-yl)methyl)-3-methylpyrazolo[1,5-a]quinoxalin-4(5H)-one] | 1.87 |
| CNC(=O)c1ccc(N2CCN(Cc3cc(Cl)c4c(c3)[nH]c(=O)c3ccnn34)CC2)c(F)n1 [Example 47, 7-((4-(2-fluoro-6-(methylcarbamoyl)pyridin-3-yl)piperazin-1-yl)methyl)-9-chloropyrazolo[1,5-a]quinoxalin-4(5H)-one] | 2.6 |
| CNC(=O)c1ccc(N2CCN(Cc3ccc4c(c3)[nH]c(=O)n3nccc43)CC2)c(C)n1 [Example 118, 8-((4-(2-methyl-6-(methylcarbamoyl)pyridin-3-yl)piperazin-1-yl)methyl)pyrazolo[1,5-c]quinazolin-5(6H)-one] | 10.7 |
| Cc1nc(C(=O)NC2CC2)ccc1N1CCN(Cc2cc(F)c3c4c(c(=O)[nH]c3c2)CCC4)CC1 [Example 81, 7-((4-(2-methyl-6-(cyclopropylcarbamoyl)pyridin-3-yl)piperazin-1-yl)methyl)-9-fluoro-1,2,3,5-tetrahydro-4H-cyclopenta[c]quinolin-4-one] | 4.67 |
| CCNC(=O)c1ccc(N2CCN(Cc3ccc4c5c(c(=O)[nH]c4c3)CCC5)CC2)c(Cl)n1 [Example 50, 7-((4-(2-chloro-6-(ethylcarbamoyl)pyridin-3-yl)piperazin-1-yl)methyl)-1,2,3,5-tetrahydro-4H-cyclopenta[c]quinolin-4-one] | 5.7 |
| O=C(NC1CC1)c1ccc(N2CCN(Cc3cc(F)c4c5c(c(=O)[nH]c4c3)CCC5)CC2)c(F)n1 [Example 82, 7-((4-(2-fluoro-6-(cyclopropylcarbamoyl)pyridin-3-yl)piperazin-1-yl)methyl)-9-fluoro-1,2,3,5-tetrahydro-4H-cyclopenta[c]quinolin-4-one] | 3.66 |
| CNC(=O)c1ccc(N2CCN(Cc3ccc4c(c3)[nH]c(=O)c3cc(C)cn34)CC2)c(C)n1 [Example 55, 7-((4-(2-methyl-6-(methylcarbamoyl)pyridin-3-yl)piperazin-1-yl)methyl)-2-methylpyrrolo[1,2-a]quinoxalin-4(5H)-one] | 1.44 |
| CNC(=O)c1ccc(N2CCN(Cc3cc(F)c4c(c3)[nH]c(=O)c3ccnn34)CC2)cn1 [Example 97, 7-((4-(6-(methylcarbamoyl)pyridin-3-yl)piperazin-1-yl)methyl)-9-fluoropyrazolo[1,5-a]quinoxalin-4(5H)-one] | 111 |
| Cc1nc(C(=O)NC2CC2)ccc1N1CCN(Cc2ccc3c4c(c(=O)[nH]c3c2)COC4)CC1 [Example 63, 7-((4-(2-methyl-6-(cyclopropylcarbamoyl)pyridin-3-yl)piperazin-1-yl)methyl)-3,5-dihydrofuro[3,4-c]quinolin-4(1H)-one] | 3.32 |

| Structure (SMILES) | IC50 [nM] |
| --- | --- |
| CNC(=O)c1ccc(N2CCN(Cc3cc(F)c4c5c(c(=O)[nH]c4c3)CCC5)CC2)c(C)n1 [Example 79, 7-((4-(2-methyl-6-(methylcarbamoyl)pyridin-3-yl)piperazin-1-yl)methyl)-9-fluoro-1,2,3,5-tetrahydro-4H-cyclopenta[c]quinolin-4-one] | 1.04 |
| CNC(=O)c1ccc(N2CCN(Cc3cc4[nH]c(=O)c5ccnn5c4cc3F)CC2)c(C)n1 [Example 93, 7-((4-(2-methyl-6-(methylcarbamoyl)pyridin-3-yl)piperazin-1-yl)methyl)-8-fluoropyrazolo[1,5-a]quinoxalin-4(5H)-one] | 5.68 |
| CNC(=O)c1ccc(N2CCN(Cc3cc(F)c4c(c3)[nH]c(=O)c3cccn34)CC2)c(Cl)n1 [Example 42, 7-((4-(2-chloro-6-(methylcarbamoyl)pyridin-3-yl)piperazin-1-yl)methyl)-9-fluoropyrrolo[1,2-a]quinoxalin-4(5H)-one] | 0.93 |
| CNC(=O)c1ccc(N2CCN(Cc3cc(Cl)c4c(c3)[nH]c(=O)c3ccnn34)CC2)c(C)n1 [Example 46, 7-((4-(2-methyl-6-(methylcarbamoyl)pyridin-3-yl)piperazin-1-yl)methyl)-9-chloropyrazolo[1,5-a]quinoxalin-4(5H)-one] | 2.27 |
| CNC(=O)c1ccc(N2CCN(Cc3ccc4c(c3)[nH]c(=O)c3c(Cl)cnn34)CC2)c(F)n1 [Example 99, 7-((4-(2-fluoro-6-(methylcarbamoyl)pyridin-3-yl)piperazin-1-yl)methyl)-3-chloropyrazolo[1,5-a]quinoxalin-4(5H)-one] | 0.54 |
| CNC(=O)c1ccc(N2CCN(Cc3ccc4c5c(c(=O)[nH]c4c3)CCC5)CC2)c(C)n1 [Example 17, 7-((4-(2-methyl-6-(methylcarbamoyl)pyridin-3-yl)piperazin-1-yl)methyl)-1,2,3,5-tetrahydro-4H-cyclopenta[c]quinolin-4-one] | 2.59 |
| CNC(=O)c1ccc(N2CCN(Cc3ccc4c(c3)[nH]c(=O)n3ccnc43)CC2)c(C)n1 [Example 31, 8-((4-(2-methyl-6-(methylcarbamoyl)pyridin-3-yl)piperazin-1-yl)methyl)imidazo[1,2-c]quinazolin-5(6H)-one] | 2.08 |
| CCNC(=O)c1ccc(N2CCN(Cc3ccc4c5c(c(=O)[nH]c4c3)CCC5)CC2)c(C)n1 [Example 49, 7-((4-(2-methyl-6-(ethylcarbamoyl)pyridin-3-yl)piperazin-1-yl)methyl)-1,2,3,5-tetrahydro-4H-cyclopenta[c]quinolin-4-one] | 2.18 |
| Cc1nc(C(=O)O)ccc1N1CCN(Cc2cc(F)c3c(c2)[nH]c(=O)c2ccnn23)CC1 [Example 116, 7-((4-(2-methyl-6-carboxypyridin-3-yl)piperazin-1-yl)methyl)-9-fluoropyrazolo[1,5-a]quinoxalin-4(5H)-one] | > 100 |
| CNC(=O)c1ccc(N2CCN(Cc3ccc4c(c3)[nH]c(=O)c3cncn34)CC2)c(Cl)n1 [Example 39, 7-((4-(2-chloro-6-(methylcarbamoyl)pyridin-3-yl)piperazin-1-yl)methyl)imidazo[1,5-a]quinoxalin-4(5H)-one] | 3.56 |
| CNC(=O)c1ccc(N2CCN(Cc3cc(F)c4c(c3)[nH]c(=O)c3ccnn34)CC2)c(Cl)n1 [Example 45, 7-((4-(2-chloro-6-(methylcarbamoyl)pyridin-3-yl)piperazin-1-yl)methyl)-9-fluoropyrazolo[1,5-a]quinoxalin-4(5H)-one] | 2.24 |
| CNC(=O)c1ccc(N2CCN(Cc3ccc4c5c(c(=O)[nH]c4c3)COC5)CC2)cn1 [Example 1, 7-((4-(6-(methylcarbamoyl)pyridin-3-yl)piperazin-1-yl)methyl)-3,5-dihydrofuro[3,4-c]quinolin-4(1H)-one] | 170 |
| CNC(=O)c1ccc(N2CCN(Cc3cc(F)c4c(c3)[nH]c(=O)n3ccnc43)CC2)c(C)n1 [Example 96, 8-((4-(2-methyl-6-(methylcarbamoyl)pyridin-3-yl)piperazin-1-yl)methyl)-10-fluoroimidazo[1,2-c]quinazolin-5(6H)-one] | 1.93 |
| CNC(=O)c1ccc(N2CCN(Cc3cc(F)c4c(c3)[nH]c(=O)c3cc(C)nn34)CC2)c(C)n1 [Example 75, 7-((4-(2-methyl-6-(methylcarbamoyl)pyridin-3-yl)piperazin-1-yl)methyl)-9-fluoro-2-methylpyrazolo[1,5-a]quinoxalin-4(5H)-one] | 3.31 |
| CNC(=O)c1ccc(N2CCN(Cc3ccc4c(c3)[nH]c(=O)c3cncn34)CC2)c(C)n1 [Example 26, 7-((4-(2-methyl-6-(methylcarbamoyl)pyridin-3-yl)piperazin-1-yl)methyl)imidazo[1,5-a]quinoxalin-4(5H)-one] | 23.9 |
| CNC(=O)c1ccc(N2CCN(Cc3ccc4c(c3)[nH]c(=O)c3ncnn34)CC2)c(C)n1 [Example 29, 7-((4-(2-methyl-6-(methylcarbamoyl)pyridin-3-yl)piperazin-1-yl)methyl)-[1,2,4]triazolo[1,5-a]quinoxalin-4(5H)-one] | 28.2 |

— patent US20240368169A1 (priority 2021, published 2024)
